Data on 8 compounds can be found in patent US9828338B2, “Carbamate derivatives of lactam based N-acylethanolamine acid amidase (NAAA) inhibitors” (The Regents of the University of California, priority 2013, dated 2017).

One test deals with T1, Rat AC (r-AC) (Rattus norvegicus, UniProt Q6P7S1).
T1 construct: V5 (C); His (C); made in house; host or cells: HEK293 cells transfected with pEF6-rAC-V5/His, G418 selected; soluble lysosomal fraction
T1 sequence (Q6P7S1 21-394): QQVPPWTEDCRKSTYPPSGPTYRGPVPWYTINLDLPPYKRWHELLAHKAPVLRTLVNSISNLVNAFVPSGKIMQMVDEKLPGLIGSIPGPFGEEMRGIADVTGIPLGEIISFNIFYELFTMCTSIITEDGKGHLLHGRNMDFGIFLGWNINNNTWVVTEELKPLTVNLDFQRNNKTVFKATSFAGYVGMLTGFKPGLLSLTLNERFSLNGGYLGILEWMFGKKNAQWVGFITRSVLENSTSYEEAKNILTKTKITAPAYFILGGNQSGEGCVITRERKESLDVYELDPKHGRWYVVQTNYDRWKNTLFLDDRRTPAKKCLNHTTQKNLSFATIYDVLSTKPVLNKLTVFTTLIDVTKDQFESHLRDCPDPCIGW
In words: Rat AC (r-AC) assay. The settings on record: for IC50: read-out: r-AC UPLC/MS assay IC50. It is filed as biochemical. Here is the method: The selectivity of selected compounds versus Acid Ceramidase (AC) was determined.
Rat AC (r-AC) was cloned from a brain cDNA library using primers based on the sequence obtained from the National Center for Biotechnology Information (NCBI) database: 5′rAC (5′-[…]-3′) (SEQ ID NO:1) and 3′rAC (5′-[…]-3′) (SEQ ID NO:2). The PCR (High Fidelity PCR Master, Roche) product was subcloned into a pEF6-V5/His vector (Invitrogen) to construct a mammalian expression vector encoding V5/His-tagged rat AC. HEK293 cells were transfected with pEF6-rAC-V5/His using Super-Fect reagent (Qiagen) and screened with G418 (0.3 mg/mL). Cells were suspended in 20 mM Tris HCl (pH 7.5) containing 0.32M sucrose, sonicated and centrifuged at 800×g for 15 minutes at 4° C. The supernatants were centrifuged again at 12,000×g for 30 minutes at 4° C. The pellets were suspended in phosphate-buffered saline (PBS) and subjected to 2 freeze-thaw cycles at −80° C. The suspensions were centrifuged at 105,000×g for 1 hour at 4° C. The supernatants containing recombinant AC were kept at −80° C. until use. Protein concentration was measured using the bicinchoninic acid (BCA) assay (Pierce). Recombinant rat AC (50 μg) was preincubated with inhibitors (final DMSO concentration 1%) in assay buffer (100 mM sodium phosphate, 0.1% Nonidet P-40, 150 mM NaCl, 3 mM DTT, 100 mM sodium citrate, pH 4.5) for 30 minutes at 37° C. Reactions were started by the addition of 100 μM N-lauroyl ceramide (Nu-Chek Prep, Elysian, Minn.) and carried on for 30 minutes at 37° C. Reactions were stopped by addition of a mixture of chloroform/methanol (2:1, vol/vol) containing 1 nmol of heptadecanoic acid (HDA; NuChek Prep). The organic phases were collected, dried under N2, and analyzed by LC-MS in the negative-ion mode using […] (HDA) as internal standard (m/z=199 for lauric acid, m/z=269 for HDA). […]. The column temperature was 50° C. Electrospray ionization (ESI) was in the negative mode, capillary voltage as 4 kV, and fragmentor voltage was 100 V. N2 was used as drying gas at a flow rate of 13 L/min and a temperature of 350° C. Nebulizer pressure was set at 60 psi. We monitored [M-H]− in the selected-ion monitoring (SIM) mode using HDA as internal standard. Calibration curves were generated using commercial lauric acid (Nu-Chek Prep; m/z=199).

Another test has as its target T2, r-NAAA (Rattus norvegicus, UniProt Q5KTC7).
T2 construct: Lysosomal NAAA protein preparation was obtained by homogenizing male Sprague-Dawley rat lungs; tissue Charles River (animals); host or cells: male Sprague-Dawley rat lung, soluble lysosomal fraction
T2 sequence (Q5KTC7 34-362): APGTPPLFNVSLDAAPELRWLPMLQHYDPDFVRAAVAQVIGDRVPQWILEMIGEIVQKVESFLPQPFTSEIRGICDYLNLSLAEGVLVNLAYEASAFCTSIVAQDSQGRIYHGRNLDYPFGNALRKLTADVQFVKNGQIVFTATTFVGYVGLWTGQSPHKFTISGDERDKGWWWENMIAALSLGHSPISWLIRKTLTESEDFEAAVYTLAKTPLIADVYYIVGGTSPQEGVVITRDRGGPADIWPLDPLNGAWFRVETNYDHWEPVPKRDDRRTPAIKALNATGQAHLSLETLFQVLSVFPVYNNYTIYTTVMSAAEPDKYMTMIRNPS
In words: UPLC/MS r-NAAA assay. The test is classed as biochemical.

In test [1] the test system is mice. In words: Carrageenan-induced inflammation (paw edema, heat hyperalgesia). The test is classed as in vivo. Conditions: compound 5 3-30 mg/kg p.o.
Test [2] concerns mice. In words: LPS-induced inflammation (lung). Conditions: for neutrophil migration/infiltration into lung tissue: 6 h and 24 h.
Experimental: Mice were anesthetized with ketamine and xylazine (100 and 10 mg/kg, respectively), and were subjected to intranasal instillation of LPS (1 μg/μL) or vehicle (saline 0.9%); the volume used was 1 μL/g body weight. In order to avoid drawing, the weight of each animal was divided by three; therefore each mouse received the respective volume of LPS or vehicle. Ex: animal 1 (24 g) received 3 times an intranasal instillation of 8 μL of LPS solution or vehicle.
The bronchoalveolar lavage and lung samples were collected 6 h or 24 h after the induction of inflammation.
The test system of test [3] is mice. In words: Carrageenan-induced lung inflammation. The test is classed as in vivo. The settings on record: carrageenan 2%. The method, then: The chest was carefully opened and the pleural cavity was rinsed with 1 mL of saline solution containing heparin (5 U/mL). The exudate and washing solution were removed by aspiration and the total volume of the fluid was measured. Any exudate that was contaminated with blood was discarded. The amount of exudate was calculated by subtracting the volume of washing fluid injected from the total volume recovered.

For another test, the target named is T3, human NAAA (Homo sapiens, UniProt Q02083).
T3 construct: made in house; host or cells: HEK293 cells, stably transfected; soluble lysosomal fraction used as enzyme source
T3 sequence (Q02083 29-359): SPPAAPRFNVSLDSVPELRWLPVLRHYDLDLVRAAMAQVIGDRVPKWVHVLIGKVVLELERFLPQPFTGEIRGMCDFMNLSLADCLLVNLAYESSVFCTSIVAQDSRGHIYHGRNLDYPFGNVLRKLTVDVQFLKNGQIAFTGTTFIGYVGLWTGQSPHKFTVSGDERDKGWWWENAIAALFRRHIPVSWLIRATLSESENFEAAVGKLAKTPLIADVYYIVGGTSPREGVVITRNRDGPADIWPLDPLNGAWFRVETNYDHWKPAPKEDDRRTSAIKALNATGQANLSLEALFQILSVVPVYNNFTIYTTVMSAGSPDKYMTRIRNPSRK
In words: Fluorogenic h-NAAA assay. The test is classed as biochemical. The method, then: Hek293 cells stably transfected with the human NAAA coding sequence cloned from a human spleen cDNA library were used as enzyme source. Recombinant HEK-hNAAA pellets were resuspended in homogenizing buffer, and sonicated. Samples were centrifuged at 800×g for 15 min at 4° C. and the resultant supernatants were then ultracentrifuged at 12,000×g for 30 min at 4° C. The pellets were resuspended in PBS pH 7.4 on ice and subjected to a freeze/thaw cycle at −80° C. The suspension was finally centrifuged at 105,000×g for 1 h at 4° C. Protein concentration was measured and samples aliquoted and stored at −80° C. until use.
The assay was run in Optiplate 96-wells black plates, in a total reaction volume of 200 μL. NAAA protein preparation (4.0 μg) was pre-incubated for 10 min with various concentrations of test compounds or vehicle control (5% DMSO) in 100 mM citrate/phosphate buffer (pH 4.5) containing 3.0 mM DTT, 0.1% Triton X-100, 0.05% BSA, 150 mM NaCl. N-(4-methyl-2-oxo-chromen-7-yl)-hexadecanamide was used as a substrate (5.0 μM) and the reaction carried over for 30 min at 37° C. The samples were then read in a Perkin Elmer Envision plate reader using an excitation wavelength of 360 nm and emission 460 nm. IC50 values were calculated by non-linear regression analysis of log [concentration]/inhibition curves using GraphPad Prism 5 (GraphPad Software Inc., CA—USA) applying a standard slope curve fitting.

[4] abbreviates: read-out: r-AC UPLC/MS assay % inhib.
The mark [5] stands for this setting: @ 10 μM, read-out: r-AC UPLC/MS assay % inhib.
Setting [6] is: compound 5 30 mg/kg p.o., dexamethasone 0.5 mg/kg i.p.

Entries after “also recorded” stand apart in the source; their conditions may differ. Where two headings read alike, the source gives them in different places.

Consider `C[C@@H]1NC(=O)[C@H]1NC(=O)OCc1ccc(-c2ccccc2)cc1` [Example 73, (4-Phenylphenyl)-methyl-N-[(2S,3S)-2-methyl-4-oxo-azetidin-3-yl]-carbamate], for which, on Rat AC (r-AC) (setting [4]), the inhibition at 10 µM came out at 20%. For the same compound, the IC50 against r-NAAA turned out to be 0.9 µM.

`C[C@H]1NC(=O)[C@H]1NC(=O)OCCCCC1CCCCC1` [Example 76, 4-Cyclohexylbutyl-N-[(2R,3S)-2-methyl-4-oxo-azetidin-3-yl]-carbamate]: the inhibition at 10 µM on Rat AC (r-AC) (setting [5]) was 5%. Further, on r-NAAA, the IC50 is 87 µM.

Consider `O=C(N[C@H]1CNC1=O)OCCCCC1CCCCC1` [Example 5, 4-Cyclohexylbutyl-N-[(3S)-2-oxoazetidin-3-yl]-carbamate], for which the IC50 on Rat AC (r-AC) came to 12.5 µM. In the test with mice [1], the heat hyperalgesia entry is recorded as “reduced; also recorded: markedly attenuated” and the paw edema entry is on record as “reduced; also recorded: markedly attenuated”. Besides, the “LPS induced increase of IL-6, TNF-α and MIP-2/CXCL2 in tissue and BAL” value in the test on mice [2] (30 mg/kg po, at 6 hr) is recorded as “significantly reduced”. Also, the “neutrophil migration/infiltration into lung tissue” value in the test with mice [2] (LPS, 30 mg/kg po, listed as Compound 5, 30 mg/kg) was “prevented”. In addition, the “neutrophil migration/infiltration into lung tissue” value in the test on mice [2] (LPS, 30 mg/kg po, listed as compound 5, 30 mg/kg) is on record as “prevents”. In addition, the “production of cytokines/chemokines in BAL and lung tissue” value in the test on mice [2] (LPS, compound 5 30 mg/kg p.o., 30 min) is “prevents”. In the test on mice [3] (setting [6]), the “TNF-alpha concentration in pulmonary exudate” value was “normalizes” and the “number of leukocytes (neutrophils) in the pulmonary exudate (FACS)” value is on record as “normalized”. Besides, the “myeloperoxidase (MPO) activity in lung tissue” value in the test with mice [3] (compound 5 0.1-30 mg/kg p.o., dexamethasone 0.5 mg/kg i.p.) is given as “normalizes; also recorded: dose-dependently normalized”. In the test on mice [3] (compound 5 0.1-30 mg/kg po), the “increase of TNF-α in the pulmonary exudate” value was “dose-dependently normalized”.

With `O=C(N[C@H]1CNC1=O)OCc1ccc(C2CCCCC2)cc1` [Example 31, (4-Cyclohexylphenyl)-methyl-N-[(3S)-2-oxoazetidin-3-yl]-carbamate], the IC50 came to 21.7 µM on Rat AC (r-AC) and 0.028 µM on r-NAAA.

`C[C@@H]1NC(=O)[C@H]1NC(=O)OCc1ccc(C2CCCCC2)cc1` [Example 74, (4-Cyclohexylphenyl)-methyl-N-[(2S,3S)-2-methyl-4-oxo-azetidin-3-yl]-carbamate]: the inhibition at 10 µM on Rat AC (r-AC) (setting [4]) was determined as 20%. Moreover, the IC50 was 0.046 µM against r-NAAA and 0.107 µM against human NAAA.

As for `C[C@@H]1NC(=O)[C@H]1NC(=O)OCCCCC1CCCCC1` [Example 72, 4-Cyclohexylbutyl-N-[(2S,3S)-2-methyl-4-oxo-azetidin-3-yl]-carbamate], the inhibition at 10 µM on Rat AC (r-AC) (setting [5]) turned out to be 20%. For the same compound, the IC50 at r-NAAA was found to be 0.05 µM.

Turning to `CCCCCCCOC(=O)N[C@H]1CNC1=O` [Example 1, Heptyl-N-[(3S)-2-oxoazetidin-3-yl]-carbamate], the inhibition at 1 µM at Rat AC (r-AC) (@ 1 μM, read-out: r-AC UPLC/MS assay % inhib.) was determined as 37%. For the same compound, the IC50 against r-NAAA was 0.7 µM.

Consider `O=C(N[C@H]1CNC1=O)OCc1ccc(-c2ccccc2)cc1` [Example 17, (4-Phenylphenyl)-methyl-N-[(3S)-2-oxoazetidin-3-yl]-carbamate], for which the figures for the IC50 on Rat AC (r-AC) and at r-NAAA were 20.1 µM and 0.31 µM, respectively.
